In ChEMBL document CHEMBL1140986, “Sidechain-linked inhibitors of HIV-1 protease dimerization” (Bioorg Med Chem, 2009):
Converted amounts (≈) assume the structure as drawn. The source made the active and inactive calls. The calls are words filed in the database; no cut-off is given here. Non-standard residues stand in square brackets, D forms with d. Residues, ends and D or L forms follow the SMILES beside them. *: point of attachment. C16 diacid = O=C(O)CCCCCCCCCCCCCCC(=O)*; aThr = C[C@H](O)[C@H](N)C(=O)O

How the values were obtained:
Protease [1] = target: T1, Protease (Human immunodeficiency virus 1, UniProt Q9YQ12); assay: Inhibition of HIV1 protease dimerization by Zhang-Poorman kinetic assay
Protease [2] = target: T1, Protease; assay: Inhibition of HIV1 protease by continuous fluorometric assay
[3] = Solubility in water; format: physicochemical
[4] = target: Protease (Human immunodeficiency virus 1) (UniProt Q9YQ12); assay: Inhibition of HIV1 protease at 130 uM by competitive Lineweaver-Burke plot
[5] = target: Protease (Human immunodeficiency virus 1) (UniProt Q9YQ12); assay: Binding affinity to HIV1 protease allosteric site at 10 to 50 uM after 1 hr by fluorescence-based cross competition kinetic assay in presence of acetyl-pepstatin
[6] = target: Protease (Human immunodeficiency virus 1) (UniProt Q9YQ12); assay: Inhibition of HIV1 protease dimerization at 65.3 uM by Zhang-Poorman kinetic assay
Protease [7] = target: T1, Protease; assay: Inhibition of HIV1 protease by competitive inhibition assay
[8] = target: Protease (Human immunodeficiency virus 1) (UniProt Q9YQ12); assay: Binding affinity to HIV1 protease active site at 10 to 50 uM after 1 hr by fluorescence-based cross competition kinetic assay in presence of acetyl-pepstatin

CC(C)C[C@H](NC(=O)[C@H](CSCCOCCOCCSC[C@H](NC(=O)CCCCC1CCCCC1)C(=O)N[C@@H](Cc1ccccc1)C(=O)O)NC(=O)CCCCC1CCCCC1)C(=O)N[C@@H](Cc1ccccc1)C(N)=O
Ki (Protease [1]): 88 µM | IC50 (Protease [2]): 675 µM

CC(C)C[C@H](NC(=O)[C@@H](NC(=O)CCCCCCCCCCCCCCC(=O)N[C@@H](CC(N)=O)C(=O)N[C@@H](Cc1ccccc1)C(=O)O)[C@@H](C)O)C(=O)N[C@@H](Cc1ccccc1)C(N)=O ({Phe-Asn-C16 diacid}-Thr-Leu-Phe-NH2)
solubility [3]: 1 µM (≈ 0.908 µg/mL)

CCCCCCC(=O)N[C@@H](CSCCOCCOCCSC[C@H](NC(=O)CCCCCC)C(=O)N[C@@H](CC(C)C)C(=O)N[C@@H](Cc1ccccc1)C(N)=O)C(=O)N[C@@H](Cc1ccccc1)C(=O)O
Ki (Protease [1]): 1.3 µM | IC50 (Protease [2]): 4 µM | solubility [3]: 80 µM (≈ 79 µg/mL)

CC(C)C[C@H](NC(=O)[C@H](CSCCOCCOCCSC[C@H](NC(=O)C1CCCCC1)C(=O)N[C@@H](Cc1ccccc1)C(=O)O)NC(=O)C1CCCCC1)C(=O)N[C@@H](Cc1ccccc1)C(N)=O
IC50 (Protease [2]): 19.5 µM

CCCC(=O)N[C@@H](CSCCOCCOCCSC[C@H](NC(=O)CCC)C(=O)N[C@@H](CC(C)C)C(=O)N[C@@H](Cc1ccccc1)C(N)=O)C(=O)N[C@@H](Cc1ccccc1)C(=O)O
Ki (Protease [1]): 8.3 µM | IC50 (Protease [2]): 87 µM

CCCCC(=O)N[C@@H](CSCCOCCOCCSC[C@H](NC(=O)CCCC)C(=O)N[C@@H](CC(C)C)C(=O)N[C@@H](Cc1ccccc1)C(N)=O)C(=O)N[C@@H](Cc1ccccc1)C(=O)O
Ki (Protease [1]): 6.8 µM | IC50 (Protease [2]): 50 µM

CC(C)C[C@H](NC(=O)[C@H](CSCCOCCOCCSC[C@H](NC(=O)CCc1ccccc1)C(=O)N[C@@H](Cc1ccccc1)C(=O)O)NC(=O)CCc1ccccc1)C(=O)N[C@@H](Cc1ccccc1)C(N)=O
IC50 (Protease [2]): 6.5 µM

CC[C@@H](C)[C@H](NC(=O)[C@H](CSCCOCCOCCSC[C@H](NC(=O)CCCCC1CCCCC1)C(=O)N[C@@H](Cc1ccccc1)C(=O)O)NC(=O)CCCCC1CCCCC1)C(=O)N[C@@H](Cc1ccccc1)C(N)=O
Ki (Protease [1]): 40.1 µM | IC50 (Protease [2]): 64 µM

CC(C)C[C@H](NC(=O)[C@@H](NC(=O)CCCCCCCCCCCCCCC(=O)N[C@@H](CC(N)=O)C(=O)N[C@@H](Cc1ccccc1)C(=O)O)[C@H](C)O)C(=O)N[C@@H](Cc1ccccc1)C(N)=O ({Phe-Asn-C16 diacid}-[aThr]-Leu-Phe-NH2)
Ki (Protease [1]): 3 µM

CC(C)C[C@H](NC(=O)[C@H](CSCCOCCOCCSC[C@H](NC(=O)COc1ccccc1)C(=O)N[C@@H](Cc1ccccc1)C(=O)O)NC(=O)COc1ccccc1)C(=O)N[C@@H](Cc1ccccc1)C(N)=O
Ki (Protease [1]): 1.25 µM | IC50 (Protease [2]): 2.9 µM

CC(C)C[C@H](NC(=O)[C@H](CSCCOCCOCCSC[C@H](NC(=O)Cc1ccccc1)C(=O)N[C@@H](Cc1ccccc1)C(=O)O)NC(=O)Cc1ccccc1)C(=O)N[C@@H](Cc1ccccc1)C(N)=O
IC50 (Protease [2]): 2.5 µM

CC(C)C[C@H](NC(=O)[C@H](CSCCOCCOCCSC[C@H](NC(=O)CC1CCCCC1)C(=O)N[C@@H](Cc1ccccc1)C(=O)O)NC(=O)CC1CCCCC1)C(=O)N[C@@H](Cc1ccccc1)C(N)=O
IC50 (Protease [2]): 9.5 µM

CCCCCCC(=O)N[C@@H](CSCCOCCOCCSC[C@H](NC(=O)CCCCCC)C(=O)N[C@H](C(=O)N[C@@H](Cc1ccccc1)C(N)=O)[C@H](C)CC)C(=O)N[C@@H](Cc1ccccc1)C(=O)O
Ki (Protease [1]): 510 µM | IC50 (Protease [2]): 1.2 µM

CCCCCC(=O)N[C@@H](CSCCOCCOCCSC[C@H](NC(=O)CCCCC)C(=O)N[C@@H](CC(C)C)C(=O)N[C@@H](Cc1ccccc1)C(N)=O)C(=O)N[C@@H](Cc1ccccc1)C(=O)O
Ki (Protease [1]): 2.3 µM | IC50 (Protease [2]): 14.9 µM | solubility [3]: 90 µM (≈ 86.3 µg/mL)

CCC(=O)N[C@@H](CSCCOCCOCCSC[C@H](NC(=O)CC)C(=O)N[C@@H](CC(C)C)C(=O)N[C@@H](Cc1ccccc1)C(N)=O)C(=O)N[C@@H](Cc1ccccc1)C(=O)O
IC50 (Protease [2]): 130 µM | Activity [4]: Active | Activity [5]: Active | Activity [6]: inactive | Ki (Protease [7]): 16.9 µM | Activity [8]: inactive

CC(C)C[C@H](NC(=O)[C@H](CSCCOCCOCCSC[C@H](NC(=O)CCC1CCCCC1)C(=O)N[C@@H](Cc1ccccc1)C(=O)O)NC(=O)CCC1CCCCC1)C(=O)N[C@@H](Cc1ccccc1)C(N)=O
IC50 (Protease [2]): 2.5 µM
